From PubChem BioAssay AID1159564 (GlaxoSmithKline (GSK), 2015)
The source made the active and inactive calls. How the calls were made is not given here.

System: L. donovani-infected THP-1 macrophages, intracellular amastigote imaging
Experiment: antileishmanial activity in infected THP-1 macrophages – imaging, THP-1 host macrophages, host toxicity (AID 1159564)
[1] = measured here: THP-1 host cell toxicity
[2] = measured here: amastigotes per macrophage

Structure (SMILES)	IC50	IC50 [1] [µM]	IC50 [2] [µM]
O=C(Nc1ccc(Br)cn1)c1ccc(Cn2cnc([N+](=O)[O-])n2)cc1	> 50 µM (inactive)	> 50	> 50
Cc1ccc(NC(=O)c2ccnc(N3CCCC3)c2)cc1-c1cc(C(N)=O)ccc1C	40 µM	32	25
Fc1ccc(Nc2nc(-c3ccccn3)cs2)cc1	10 µM	> 50	6.3
COc1ccc(C(=O)Nc2ccc(NC(=O)CO)cc2)cc1	> 50 µM (inactive)	20	> 50
COc1ncc(-c2ccc3nccc(-c4ccncc4)c3c2)cc1NS(=O)(=O)C1CC1	1.3 µM	1	0.32
O=[N+]([O-])c1ccc(C2=CC(c3ccccc3)=NCCN2)cc1	20 µM	40	7.9
Cn1ccnc1CN1CCc2[nH]cnc2C1c1ccccc1OCc1ccccc1 (centres undefined)	> 50 µM (inactive)	> 50	> 50
COc1cc(-c2nc(N3CCOCC3)sc2-c2ccnc(NC3CCOCC3)n2)ccc1Cl	> 50 µM (inactive)	> 50	0.02
Cc1nn(C2CCS(=O)(=O)C2)c(C)c1CN(C)C(=O)C=Cc1sc2ccccc2c1Cl (centres undefined)	40 µM	20	13
Nc1cc(-c2ccc3ncnc(N4CCOCC4)c3c2)cnc1N	10 µM	> 50	1.3
c1ccc(CNc2cccc3ccncc23)cc1	7.9 µM	50	5
C[C@@H](Oc1cc(-n2cnc3ccc(C(O)CO)cc32)sc1C(N)=O)c1ccccc1C(F)(F)F (some centres undefined)	20 µM	16	13
O=C(Nc1nc(-c2ccccn2)cs1)C1CCc2ccccc2C1 (centres undefined)	0.63 µM	7.9	0.4
CN1CCN(c2nc(-c3ccc(Cl)cc3)c3c(N)n(C)nc3n2)CC1	40 µM	40	32
Cc1nc2c(-c3ncn[nH]3)cc(NC(=O)Cc3ccccc3)cn2c1C	0.4 µM	7.9	0.32
O=C1COC(c2ccccc2)(c2ccccc2)CN1C1CCN(Cc2ccc(-n3ccnc3)cc2)CC1	16 µM	16	13
O=C(NCCc1ccn(-c2ccccc2)n1)C1CCCCC1	> 50 µM (inactive)	> 50	> 50
O=C(COc1ccccc1)Nc1ccccc1C(=O)Nc1nccs1	> 50 µM (inactive)	7.9	> 50
Cc1ccc2nc(N(Cc3cccnc3)C(=O)CCc3ccccc3)sc2c1	> 50 µM (inactive)	> 50	> 50
Cc1ccccc1CNC(=O)CN(Cc1ccccn1)Cc1ccccn1	6.3 µM	> 79	4
CCS(=O)(=O)c1cccc(C(=O)Nc2nc(-c3ccccn3)cs2)c1	4 µM	20	3.2
NCc1ccc2c(Cl)cc(Cl)c(O)c2n1	2 µM	20	2
COc1ccc(C2CC(c3ccccc3Cl)=NN2C(=O)CNC(=O)C2CCCC2)cc1 (centres undefined)	> 50 µM (inactive)	> 50	> 50

Structure (SMILES)	IC50	IC50 [1] [µM]	IC50 [2] [µM]
Cc1ccc(S(=O)(=O)Nc2ccc(CN3CCN(C(=O)c4cccc(C)c4)CC3)cc2)cc1	40 µM	40	32
Fc1ccc(OC2CC(NCc3cccc4cn[nH]c34)C2)cc1C(F)(F)F (centres undefined)	7.9 µM	10	7.9
O=C(O)[C@H]1C[C@@H]1c1ccc(-c2ccc(CN(CCc3ccccn3)C(=O)C3CCC3)cc2)cc1	> 50 µM (inactive)	> 50	> 50
COc1ccc(Nc2nccc(N(C)c3n[nH]c4c(F)cccc34)n2)cc1S(C)(=O)=O	2.5 µM	10	1
C[C@@H](Oc1cc(-n2cnc3cc(N)ccc32)sc1C(N)=O)c1ccccc1Cl	32 µM	25	20
O=C(Nc1nc(-c2ccc(S(=O)(=O)N3CCOCC3)cc2)cs1)c1ccc([N+](=O)[O-])cc1	> 50 µM (inactive)	4	2.5
Cc1cc(Nc2cc(C3CC3)[nH]n2)nc(N2CCC[C@H]2C(N)=O)n1	0.2 µM	0.13	0.079
Cc1ncsc1CNc1cnc(-c2ccc3c(c2)OCCO3)c(-c2cnn(C)c2)c1	16 µM	16	13
CC(C)(C)Nc1nc(-c2ccccn2)nc2ccccc12	1.6 µM	16	1.3
COc1ccc2ncc(Cl)c(CCN3CC[C@@H](NCc4cc5c(cn4)OCS5)[C@H](O)C3)c2n1	13 µM	25	7.9
COc1ccc(-c2cnc(NC(=O)c3ccc(F)cc3)n2C)cc1	1.3 µM	> 50	0.5
COc1ccc(-c2csc(NC(=O)c3ccc([N+](=O)[O-])s3)n2)cc1	4 µM	> 50	1.6
COc1ccc(Nc2nc(-c3ccccn3)cs2)c(OC)c1	2.5 µM	> 50	2
CCS(=O)(=O)Nc1ccc(C2=NN(C(=O)c3cccs3)C(c3ccccc3OC)C2)cc1 (centres undefined)	7.9 µM	> 50	7.9
CC1=NN(C(=O)CCn2cnc([N+](=O)[O-])n2)C(O)(C(F)(F)F)C1 (centres undefined)	> 50 µM (inactive)	> 50	> 50
COc1ccc(C(=O)NC2CCN(CCn3c(=O)ccc4ncc(F)cc43)CC2)cc1Cl	> 50 µM (inactive)	> 50	16
CC(C)c1cc(C(=O)N2CCCC(c3cc4ncccc4[nH]3)C2)on1 (centres undefined)	> 50 µM (inactive)	> 50	> 50
COc1cc(OC)cc(C(=O)N[C@@H](CC(C)C)C(=O)NC2(C#N)CC2)c1	> 50 µM (inactive)	> 50	> 50
CNc1c(C(N)=O)c(-c2ccc3scnc3c2)nn1CC(F)(F)F	> 50 µM (inactive)	> 50	> 50
Cn1nc(-c2ccc(NC(=O)Cc3ccccc3Cl)cc2)c2c(N)ncnc21	> 50 µM (inactive)	> 50	> 50
Cc1nc(C(=O)Nc2ccc3c(c2)OCO3)nn1-c1ccc(F)cc1	7.9 µM	> 50	2.5
NC(=O)c1ccc(-c2cccc(OCCN3CCN(C4CCCCC4)CC3)c2)cc1	50 µM	32	10
Cn1c(CC(=O)NNC(=O)c2ccc3ccccc3n2)nc2ccccc21	1.3 µM	> 50	0.79

Structure (SMILES)	IC50	IC50 [1] [µM]	IC50 [2] [µM]
O=C(Nc1ccccc1C(=O)Nc1ccccn1)c1ccco1	> 50 µM (inactive)	> 50	> 50
CCN(CC)c1nc(Nc2ccncc2)nc2ccccc12	6.3 µM	25	2
CN(C)S(=O)(=O)c1ccc(Cl)c(C(=O)Nc2nc(-c3ccccn3)cs2)c1	10 µM	6.3	5
Cc1cc2cncn2c(C2CCCCN2C(=O)c2cccs2)n1 (centres undefined)	> 50 µM (inactive)	> 50	> 50
Cc1ccc(CNC2CCN(C[C@@H]3Cn4c(=O)ccc5ccc(=O)n3c54)CC2)cc1F	> 50 µM (inactive)	> 50	> 50
COc1cc(C2SCC(=O)Nc3c2c(C)nn3-c2nc3ccccc3s2)cc(OC)c1O (centres undefined)	0.32 µM	> 50	0.25
CN(C)c1ncc(-c2cncn2CCOc2ccc(Cl)cc2)cn1	> 50 µM (inactive)	> 50	> 50
Cc1nn2c(NCCCO)c3c(nc2c1-c1cccs1)CCC3	> 50 µM (inactive)	> 50	> 50
CC(C)C[C@H](NC(=O)c1ccc(-c2ccccc2)o1)C(=O)NC1(C#N)CC1	> 50 µM (inactive)	> 50	16
CC(=O)Nc1ccc(-c2cnc(N)c(-c3nc4ccc(F)cc4[nH]3)c2)cc1	1 µM	7.9	0.5
COc1ccc(Oc2ccc(C(C)N(C)c3ncc4c(N)nc(N)nc4n3)cc2)cc1 (centres undefined)	0.1 µM	16	0.05
CC1=C(C(=O)Nc2ccc(Cl)cc2)C(c2ccncc2)n2ncc(C(=O)Nc3ccccc3)c2N1 (centres undefined)	> 50 µM (inactive)	13	> 50
O=C1CN(Cc2ccco2)C2CS(=O)(=O)CC2N1c1ccc(Cl)cc1 (centres undefined)	> 50 µM (inactive)	> 50	> 50
Cc1cnc(Nc2cc(Cc3ccccc3)nc(NC3CCC(O)CC3)n2)s1 (centres undefined)	0.04 µM	0.025	0.032
Cc1cc(NC(=O)c2ccc([N+](=O)[O-])s2)ccc1Br	2.5 µM	16	1.6
CC(C)c1sc(Cl)nc1C(=O)NCCc1nc(C(=O)Nc2ccc3c(c2)OCO3)cs1	5 µM	> 50	2.5
O=c1cc(NCCCNCc2c[nH]c3ccc(Br)cc23)[nH]c2ccccc12	> 50 µM (inactive)	> 50	> 50
N#Cc1cnc(Nc2cccc(CCN3CCOCC3)c2)nc1Nc1ccccc1C(N)=O	1.6 µM	0.79	1
O=C(c1cccc(Nc2ncc(-c3ccc4c(c3)OCO4)cn2)c1)N1CCOCC1	4 µM	63	1.6
COc1ccc(C(=O)Nc2c(C)nn(COc3cccc(C(F)(F)F)c3)c2C)cc1	> 50 µM (inactive)	32	> 50
O=C(Nc1n[nH]c(-c2ccccn2)n1)C1CC1c1ccccc1 (centres undefined)	7.9 µM	20	7.9
Nc1nc(-c2ccccc2)cc(-c2nc3ncccc3[nH]2)n1	2.5 µM	> 50	2.5
